Data on 73 compounds can be found in the OPERA property sets (Mansouri et al. 2018).

In brackets after ≈: the same amount, converted by molar mass.

Settings in one data set: not given
One may read the logP as a log measure of how a compound divides between an organic and an aqueous phase. `CCCCOC(=O)C(C)Oc1ccc(Oc2ccc(C(F)(F)F)cn2)cc1` (stereo unspecified): the lipophilicity (logP) is 4.5.

In turn, `CC(C)(C)c1ccc(CSc2cnn(C(C)(C)C)c(=O)c2Cl)cc1` had a logP of 6.37.

Take `COP(=S)(OC)SCC(=O)N(c1ccc(Cl)cc1)C(C)C`: the lipophilicity (logP) is 3.81.

In the case of `Cc1cnc(C2=NC(=O)C(C)(C(C)C)N2)c(C(=O)O)c1` (stereo unspecified), the logP was 2.47.

Turning to `CCOCN(C(=O)CCl)c1c(C)cccc1CC`, the logP was determined as 3.03.

`CCCCN(CC)C(=O)SCCC`: the logP is 3.83.

Take `CCOC(=O)c1cn2nc(OP(=S)(OCC)OCC)cc2nc1C`: the logP turned out to be 3.8. This logP and that of the compound before are within 0.2 log units of each other.

As for `O=C1C(Cl)=C(Cl)C(=O)N1c1ccc(F)cc1`, the logP came out at 2.3.

In turn, `CN(C)C(=O)SCCCCOc1ccccc1` registered a logP of 3.28.

Regarding `Cc1nc(N(C)C)nc(OC(=O)N(C)C)c1C`, the logP is 1.7.

In turn, `COC(=O)Nc1cccc(OC(=O)Nc2cccc(C)c2)c1` yielded a logP of 3.59.

`N#Cc1c[nH]cc1-c1cccc2c1OC(F)(F)O2`: the lipophilicity (logP) amounted to 4.12.

Regarding `Clc1ccccc1-c1nnc(-c2ccccc2Cl)nn1`, the logP is 3.1.

For the compound `CCOCn1c(-c2ccc(Cl)cc2)c(C#N)c(Br)c1C(F)(F)F`, the lipophilicity (logP) came to 4.83.

On to `CCCN(CCC)C(=O)SCc1ccccc1`, for which the logP amounted to 4.65.

For the compound `CC1=C(C)S(=O)(=O)CCS1(=O)=O`, the logP is -0.17.

`CCOC(=O)CCN(Cc1ccccc1)SN(C)C(=O)O/N=C(/C)SC`: the logP is 3.43.

For `O=C(NC(=O)c1c(F)cccc1F)Nc1cc(Cl)c(Oc2ncc(C(F)(F)F)cc2Cl)c(Cl)c1`, the logP came out at 5.8.

`CC(C)C(O)(c1ccc(OC(F)(F)F)cc1)c1cncnc1` (stereo unspecified) had a lipophilicity (logP) of 3.34.

Regarding `N#Cc1c[nH]cc1-c1cccc(Cl)c1Cl`, the logP was found to be 3.86.

In turn, `CC(Oc1ccc(Oc2cnc3cc(Cl)ccc3n2)cc1)C(=O)OCC1CCCO1` (stereo unspecified) had a logP of 4.32.

`C=C(C)CN(CC)c1c([N+](=O)[O-])cc(C(F)(F)F)cc1[N+](=O)[O-]` registered a logP of 5.11.

`CC(Oc1ccc(Oc2ncc(Cl)cc2Cl)cc1)C(=O)N1CCCO1` (stereo unspecified): the logP was 3.36.

Turning to `CN(C)C(=O)Nc1cc(C(C)(C)C)on1`, the logP amounted to 1.98.

`CN(C)C(O)=Nc1ccc(-n2nc(C(C)(C)C)oc2=O)c(Cl)c1` gave a logP of 2.51.

The compound `CS(=O)(=O)NC(=O)c1cc(Oc2ccc(C(F)(F)F)cc2Cl)ccc1[N+](=O)[O-]` had a logP of 2.9.

In turn, `CC(C)C1CCC(Cc2ccc(Cl)cc2)C1(O)Cn1cncn1` (stereo unspecified) returned a lipophilicity (logP) of 4.21.

The compound `COP(=S)(OC)Oc1c(Cl)cc(C)cc1Cl` came in with a logP of 4.56.

In general, solubility refers to the concentration that dissolves in the medium under given conditions. Higher therefore signals much dissolved substance. `N=C(N)NCCCCCCCCNCCCCCCCCNC(=N)N` had a solubility of 2150 mM (≈ 764000 µg/mL).

For `CC1(C)CNC(=NN=C(/C=C/c2ccc(C(F)(F)F)cc2)/C=C/c2ccc(C(F)(F)F)cc2)NC1`, the logP was 2.31.

As to `CCOP(=S)(NC(C)CC)Oc1cc(C)ccc1[N+](=O)[O-]` (stereo unspecified), the logP is 4.62.

The compound `CNC(=O)N(C)c1nc2ccccc2s1` returned a logP of 2.64.

In the case of `C=CCN(CC=C)C(=O)C(Cl)Cl`, the logP stood at 1.84.

Consider `COc1ccc(C(O)(c2cncnc2)C2CC2)cc1` (stereo unspecified), for which the logP turned out to be 1.91. The logP values of the last two compounds are within 0.2 log units of each other.

`COCC(C)N(C(=O)CCl)c1c(C)csc1C` (stereo unspecified): the logP worked out at 2.15.

Take `S=C([S-])NCCNC(=S)[S-].[Na+].[Na+]`: the solubility is 780 mM. In other words, the millimolar range.

`CCOC(=O)Cn1c(=O)sc2cccc(Cl)c21` yielded a logP of 2.5.

On to `CC(C)(C)c1ccc(CCOc2ncnc3ccccc23)cc1`, for which the logP was 5.51.

Still in this data set, the particulars now being: 20 °C.
Compound `CCOC(=O)c1cnn(C)c1S(=O)(=O)NC(=O)Nc1nc(OC)cc(OC)n1` came in with a solubility of 0.035 mM (≈ 14.5 µg/mL).

Consider `CC(Oc1ccc(Oc2cnc3cc(Cl)ccc3n2)cc1)C(=O)O` (stereo unspecified), for which the solubility worked out at 0.00087 mM (≈ 0.3 µg/mL).

In turn, `CN(C)S(=O)(=O)N(SC(F)(Cl)Cl)c1ccccc1` showed a solubility of 0.0039 mM (≈ 1.3 µg/mL).

The compound `O=C1c2ccccc2C(=O)C1C(=O)C(c1ccccc1)c1ccc(Cl)cc1` (stereo unspecified) had a solubility of 0.267 mM (≈ 100 µg/mL).

In the case of `CCCN(CCC)C(=O)SCc1ccccc1`, the solubility was determined as 0.0525 mM (≈ 13.2 µg/mL).

On to `ClC1=C(Cl)C(Cl)(C2(Cl)C(Cl)=C(Cl)C(Cl)=C2Cl)C(Cl)=C1Cl`, for which the solubility amounted to 5.27e-05 mM (≈ 0.025 µg/mL).

Turning to `CC(C)C(O)(c1ccc(OC(F)(F)F)cc1)c1cncnc1` (stereo unspecified), the solubility came out at 0.365 mM (≈ 114 µg/mL).

As for `NCCO.O=C(Nc1ccc([N+](=O)[O-])cc1Cl)c1cc(Cl)ccc1O`, the solubility was 0.258 mM.

Consider `CCN(C(=O)SCc1ccccc1)C(C)C(C)C` (stereo unspecified), for which the solubility worked out at 0.0185 mM (≈ 4.9 µg/mL).

`CSc1nnc(C(C)(C)C)c(=O)n1N` came in with a solubility of 5.28 mM (≈ 1130 µg/mL).

In turn, `CCNC(=O)C(C)OC(=O)Nc1ccccc1` (stereo unspecified) gave a solubility of 14.8 mM (≈ 3500 µg/mL). This solubility lies about 2.8-fold higher than the previous one.

For the compound `O=C(O)CCCc1c[nH]c2ccccc12`, the solubility is 1.23 mM (≈ 250 µg/mL).

`COC(=O)/C(C)=C/OP(=S)(OC)OC` showed a solubility of 1.67 mM (≈ 400 µg/mL).

As to `CC(C)(C)[C@@H](O)[C@@H](Cc1ccc(Cl)cc1)n1cncn1` (single isomer, unassigned), the solubility was found to be 0.103 mM (≈ 30.2 µg/mL).

`CNC(=O)Oc1ccc(C)c(C)c1` gave a solubility of 7.25 mM (≈ 1300 µg/mL).

Take `Cc1cnc2c(C(=O)O)c(Cl)ccc2c1`: the solubility is 1.01 mM (≈ 223 µg/mL).

Consider `CC(C)(C)c1ccc(CCOc2ncnc3ccccc23)cc1`, for which the solubility was 0.000718 mM (≈ 0.22 µg/mL).

In turn, `CN(C(O)=NC(C)(C)c1ccccc1)c1ccccc1` had a solubility of 0.447 mM (≈ 120 µg/mL).

The data set is the same for the next values; noted with them: 22 °C.
The compound `CC(C)c1ccc(NC(=O)N(C)C)cc1` had a solubility of 0.291 mM (≈ 60 µg/mL).

The same data set, now with this note: 24 °C.
Compound `CCOC(=O)Cc1[nH]nc2ccc(Cl)cc12` yielded a solubility of 0.943 mM (≈ 225 µg/mL).

Staying with this data set, now noted: 25 °C.
For `Cc1cnc(C2=NC(=O)C(C)(C(C)C)N2)c(C(=O)O)c1` (stereo unspecified), the solubility is 8.11 mM (≈ 2230 µg/mL).

`O=C(O)c1cc(Oc2ccc(C(F)(F)F)cc2Cl)ccc1[N+](=O)[O-]` came in with a solubility of 0.332 mM (≈ 120 µg/mL). Against the preceding compound, the solubility is about 24-fold lower.

In turn, `COc1ccc(NC(=O)N(C)C)cc1Cl` registered a solubility of 2.62 mM (≈ 600 µg/mL). Compared with the last compound, the solubility is about 7.9-fold higher.

`COc1nc(NC(C)C)nc(NC(C)C)n1` registered a solubility of 3.33 mM (≈ 750 µg/mL).

`CCCCN(CCCC)SN(C)C(=O)Oc1cccc2c1OC(C)(C)C2`: the solubility came to 0.000788 mM (≈ 0.3 µg/mL).

Turning to `CON(C)C(=O)Nc1ccc(Oc2ccc3c(c2)OC(C)(OC)CC3(C)C)cc1` (stereo unspecified), the solubility is 0.000999 mM (≈ 0.4 µg/mL). The solubility values of the last two compounds are within 1.5-fold of each other.

In turn, `CC(C)(N=C(O)C(Br)C(C)(C)C)c1ccccc1` (stereo unspecified) yielded a solubility of 0.0113 mM (≈ 3.54 µg/mL).

Compound `Cc1c(Cl)ccc(OC(C)C(O)=Nc2ccccc2)c1Cl` (stereo unspecified) showed a solubility of 9.87e-05 mM (≈ 0.032 µg/mL).

Compound `CC1=C(C)S(=O)(=O)CCS1(=O)=O` had a solubility of 21.9 mM (≈ 4600 µg/mL).

`O=C1OCc2c(Cl)c(Cl)c(Cl)c(Cl)c21` yielded a solubility of 0.00919 mM (≈ 2.5 µg/mL).

Compound `N#Cc1c[nH]cc1-c1cccc(Cl)c1Cl` showed a solubility of 0.0202 mM (≈ 4.8 µg/mL).

Turning to `CCCN(CCC)c1c([N+](=O)[O-])cc(C(F)(F)F)c(N)c1[N+](=O)[O-]`, the solubility turned out to be 3.71e-05 mM (≈ 0.013 µg/mL).

On to `CC(Oc1ccc(Oc2cnc3cc(Cl)ccc3n2)cc1)C(=O)OCC1CCCO1` (stereo unspecified), for which the solubility came to 0.00933 mM (≈ 4 µg/mL).

In turn, `CC(C)(C)C(O)/C(=C\c1ccc(Cl)cc1Cl)n1cncn1` (stereo unspecified) gave a solubility of 0.0123 mM (≈ 4 µg/mL). This solubility and that of the compound before are within 1.5-fold of each other.

Compound `CC(Oc1ccc(Oc2ncc(Cl)cc2Cl)cc1)C(=O)N1CCCO1` (stereo unspecified) yielded a solubility of 0.0256 mM (≈ 9.8 µg/mL).

Take `CCn1cc(C(=O)O)c(=O)c2cc3c(cc21)OCO3`: the solubility is 0.0122 mM (≈ 3.2 µg/mL). Compared with the last compound, the solubility is about 2.1-fold lower.

`COP(=S)(OC)Oc1c(Cl)cc(C)cc1Cl` showed a solubility of 0.0022 mM (≈ 0.663 µg/mL).

With `CC1(C)CNC(=NN=C(/C=C/c2ccc(C(F)(F)F)cc2)/C=C/c2ccc(C(F)(F)F)cc2)NC1`, the solubility is 1.21e-05 mM (≈ 0.006 µg/mL).

`Nc1c(Cl)c(Cl)nc(C(=O)O)c1Cl` returned a solubility of 1.78 mM (≈ 430 µg/mL).

`CCOP(=S)(NC(C)CC)Oc1cc(C)ccc1[N+](=O)[O-]` (stereo unspecified) returned a solubility of 0.0169 mM (≈ 5.62 µg/mL).

In the case of `Cc1ccc(C(=O)COc2c(C(=O)c3ccc(Cl)c(C)c3Cl)c(C)nn2C)cc1`, the solubility stood at 0.000301 mM (≈ 0.13 µg/mL).

`COCC(C)N(C(=O)CCl)c1c(C)csc1C` (stereo unspecified) yielded a solubility of 4.35 mM (≈ 1200 µg/mL).

The same data set, now with this note: 27 °C.
Take `CC(Oc1ccc2ccccc2c1)C(O)=Nc1ccccc1` (stereo unspecified): the solubility was 0.00257 mM (≈ 0.75 µg/mL). This counts as single-digit micromolar.

`CN(C)C(=O)C(c1ccccc1)c1ccccc1`: the solubility is 1.09 mM (≈ 260 µg/mL). Compared with the last compound, the solubility is about 420-fold higher.

The compound `C/C=C\COCN(C(=O)CCl)c1c(CC)cccc1CC` had a solubility of 0.0936 mM (≈ 29 µg/mL).

The same data set, now with this note: 30 °C.
Consider `O=C(Nc1ccc(Cl)cc1C(O)c1ccccc1)c1ccncc1` (stereo unspecified), for which the solubility was 0.00295 mM (≈ 1 µg/mL).

The data set is the same for the next values; noted with them: pH 6.4; 21 °C.
The compound `O=C(Nc1ccccc1)Nc1ccnc(Cl)c1` had a solubility of 0.157 mM (≈ 39 µg/mL).

Still in this data set, the particulars now being: pH 6.5; 23 °C.
Compound `CCCCOC(=O)C(C)Oc1ccc(Oc2ccc(C(F)(F)F)cn2)cc1` (stereo unspecified) yielded a solubility of 0.0031 mM (≈ 1.19 µg/mL). That is a single-digit micromolar value.
